Experimental data reported in ChEMBL document CHEMBL3580649, “Cardamonin induces autophagy and an antiproliferative effect through JNK activation in human colorectal carcinoma HCT116 cells” (2015).
The source made the active and inactive calls. The calls are words filed in the database; no cut-off is given here.

Experiments:
[1] = target: Mitogen-activated protein kinase 8 (Homo sapiens) (UniProt P45983); assay: Activation of JNK1 in human HCT116 cells assessed as phosphorylation at 10 uM after 24 hrs by Western blotting analysis in presence of 30 uM PFT-alpha p53 antagonist; format: cell-based; conditions: HCT-116
Mitogen-activated protein kinase 8 (Homo sapiens), sequence (P45983 whole entry): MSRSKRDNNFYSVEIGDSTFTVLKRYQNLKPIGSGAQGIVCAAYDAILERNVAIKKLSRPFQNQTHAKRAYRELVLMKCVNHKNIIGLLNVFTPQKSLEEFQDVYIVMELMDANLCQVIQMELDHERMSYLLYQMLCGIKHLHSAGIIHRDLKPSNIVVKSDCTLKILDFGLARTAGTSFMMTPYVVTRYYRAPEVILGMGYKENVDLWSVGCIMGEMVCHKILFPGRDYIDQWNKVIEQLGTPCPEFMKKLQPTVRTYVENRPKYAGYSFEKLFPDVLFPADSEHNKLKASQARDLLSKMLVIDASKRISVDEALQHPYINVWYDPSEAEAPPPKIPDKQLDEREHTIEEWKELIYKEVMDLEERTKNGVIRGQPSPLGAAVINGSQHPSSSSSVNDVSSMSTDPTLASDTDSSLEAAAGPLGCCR

HCT-116 [2] = assay: Induction of cell cycle arrest in human HCT116 cells assessed as cells accumulation at S phase at 10 uM after 24 hrs by propidium iodide staining-based flow cytometry (reference value: 48.8 +/- 1.5%); format: functional
HCT-116 [3] = assay: Induction of autophagy in human HCT116 cells assessed as increase in LC3-II accumulation at 10 uM upto 20 hrs by Confocal imaging analysis; format: functional, cell-based
HCT-116 [4] = assay: Induction of autophagy in human HCT116 cells assessed as autophagic vacuoles at 10 uM after 24 hrs by monodansylcadaverine staining assay; format: functional, cell-based
[5] = target: Mitogen-activated protein kinase 9 (Homo sapiens) (UniProt P45984); assay: Activation of JNK2 in human HCT116 cells assessed as phosphorylation at 10 uM after 24 hrs by Western blotting analysis in presence of 30 uM PFT-alpha p53 antagonist; format: cell-based; conditions: HCT-116
Mitogen-activated protein kinase 9 (Homo sapiens), sequence (P45984 whole entry, looked up): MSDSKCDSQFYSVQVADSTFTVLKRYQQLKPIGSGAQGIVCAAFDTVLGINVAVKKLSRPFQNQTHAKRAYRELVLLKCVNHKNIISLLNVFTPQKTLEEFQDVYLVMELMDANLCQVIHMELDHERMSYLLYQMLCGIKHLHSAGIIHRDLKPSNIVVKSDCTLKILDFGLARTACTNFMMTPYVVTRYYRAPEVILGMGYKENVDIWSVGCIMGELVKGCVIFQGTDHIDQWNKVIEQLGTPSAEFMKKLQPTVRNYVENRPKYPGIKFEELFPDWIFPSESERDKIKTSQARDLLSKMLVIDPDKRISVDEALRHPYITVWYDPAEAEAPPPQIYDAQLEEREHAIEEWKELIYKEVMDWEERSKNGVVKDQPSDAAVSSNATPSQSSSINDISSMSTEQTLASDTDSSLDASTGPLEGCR

[6] = target: Mitogen-activated protein kinase 9 (Homo sapiens) (UniProt P45984); assay: Activation of JNK2 in human HCT116 cells transfected with shRNA against p53 assessed as phosphorylation at 10 uM after 24 hrs by Western blotting analysis; format: cell-based; conditions: HCT-116
HCT-116 [7] = assay: Antiproliferative activity against human HCT116 cells transfected with shRNA against p53 at 10 uM after 24 hrs by CCK8 assay in presence of exogenous p53 gene; format: functional, cell-based
HCT-116 [8] = assay: Induction of cell cycle arrest in human HCT116 cells assessed as cells accumulation at G2/M phase at 10 uM after 24 hrs by propidium iodide staining-based flow cytometry (reference value: 19.2 +/- 0.3%); format: functional
HCT-116 [9] = assay: Induction of autophagy in human HCT116 cells assessed as autophagic vacuoles at 10 uM after 24 hrs by monodansylcadaverine staining assay in presence of Bafilomycin A1; format: functional, cell-based
HCT-116 [10] = assay: Antiproliferative activity against human HCT116 cells assessed as cell viability after 24 hrs by WST8 assay; format: functional, cell-based
HCT-116 [11] = assay: Antiproliferative activity against human HCT116 cells transfected with shRNA against p53 at 10 uM after 24 hrs by CCK8 assay relative to control; format: functional, cell-based
HCT-116 [12] = assay: Induction of autophagy in human HCT116 cells assessed as LC3-II accumulation at 10 uM upto 20 hrs by Western blotting analysis in presence of 20 uM SP600125 reversible JNK inhibitor; format: functional, cell-based
[13] = target: Mitogen-activated protein kinase 8 (Homo sapiens) (UniProt P45983); assay: Activation of JNK1 in human HCT116 cells transfected with shRNA against p53 assessed as phosphorylation at 10 uM after 24 hrs by Western blotting analysis; format: cell-based; conditions: HCT-116
HCT-116 [14] = assay: Induction of cell cycle arrest in human HCT116 cells assessed as cells accumulation at G0/G1 phase at 10 uM after 24 hrs by propidium iodide staining-based flow cytometry (reference value: 31.9 +/- 2.3%); format: functional
HCT-116 [15] = assay: Antiproliferative activity against human HCT116 cells at 10 uM upto 20 hrs by CCK8 assay relative to control in presence of 20 uM SP600125 reversible JNK inhibitor; format: functional, cell-based
[16] = target: Mitogen-activated protein kinase 8 (Homo sapiens) (UniProt P45983); assay: Activation of JNK1 in human HCT116 cells assessed as phosphorylation at 10 uM after 24 hrs by Western blotting analysis; format: cell-based; conditions: HCT-116
HCT-116 [17] = assay: Induction of autophagy in human HCT116 cells assessed as increase in LC3-II accumulation at 10 uM upto 20 hrs by immunoblot analysis; format: functional, cell-based
HCT-116 [18] = assay: Induction of autophagy in human HCT116 cells assessed as LC3-II accumulation at 10 uM upto 20 hrs by Western blotting analysis in presence of 30 uM PFT-alpha p53 antagonist; format: functional, cell-based
HCT-116 [19] = assay: Antiproliferative activity against human HCT116 cells assessed as cell viability at 10 uM after 24 hrs by WST8 assay relative to vehicle treated control; format: functional; conditions: HCT-116, 24 h
HCT-116 [20] = assay: Induction of autophagy in human HCT116 cells assessed as increase in LC3-II dots per cell at 10 uM upto 20 hrs by Confocal imaging analysis relative to vehicle treated control (reference value: 0.8/cell); format: functional
HCT-116 [21] = assay: Induction of autophagy in human HCT116 cells transfected with shRNA against p53 assessed as LC3-II accumulation at 10 uM after 24 hrs by Western blotting analysis; format: functional, cell-based
[22] = target: Mitogen-activated protein kinase 9 (Homo sapiens) (UniProt P45984); assay: Activation of JNK2 in human HCT116 cells assessed as phosphorylation at 10 uM after 24 hrs by Western blotting analysis; format: cell-based; conditions: HCT-116

## COc1cc(O)cc(O)c1C(=O)/C=C/c1ccccc1 [CARDAMOMIN]
[1]
  Activity: inactive
HCT-116 [2]
  Activity: 46.6%
HCT-116 [3]
  Activity: Active
HCT-116 [4]
  Activity: Active
[5]
  Activity: inactive
[6]
  Activity: inactive
HCT-116 [7]
  inhibition: Active
HCT-116 [8]
  Activity: 25%
HCT-116 [9]
  Activity: inactive
HCT-116 [10]
  inhibition: Dose-dependent effect
HCT-116 [11]
  inhibition: inactive
HCT-116 [12]
  Activity: inactive
[13]
  Activity: inactive
HCT-116 [14]
  Activity: 28.4%
HCT-116 [15]
  Activity: inactive
[16]
  Activity: Active
HCT-116 [17]
  Activity: Active
HCT-116 [18]
  Activity: inactive
HCT-116 [19]
  inhibition at 10 µM: 37%
HCT-116 [20]
  Activity: 3.4
HCT-116 [21]
  Activity: inactive
[22]
  Activity: Active
